In article PMC10777848 (Antimicrobial Agents and Chemotherapy, 2023):
Where “and” joins values, the source holds several entries; their conditions need not be identical. Equal values may be shown once. Read-outs that look alike come from different tables or passages of the source.

Legend:
A. baumannii [1] = conditions: in vitro pharmacodynamic models; cited from earlier work
A. baumannii [2] = test: Murine neutropenic lung infection model, PK/PD exposure-response; assay type: in vivo, CD-1 mice
Experimental: (§1) Magnitudes associated with 1-log10 and 2-log10 CFU reduction from baseline at 24 hours as well as the exposure required for an 80% reduction in bacterial burden (EC80) were determined from the fitted function.

A. baumannii [3] = test: Murine neutropenic thigh and lung models taken together; assay type: in vivo, CD-1 mice
Experimental: as §1

[4] = Population PK in infected neutropenic mice (two-compartment model)
Excerpt: As the plasma PK of neutropenic lung-infected animals matched that of thigh-infected animals, the thigh-infected PK was used for the development of the population PK model and subsequent exposure estimates for doses used in the PK/PD exposure-response analyses. Pharmacokinetic models were fit to time vs. drug concentration profiles generated in infected mice using Phoenix6.2 WinNonLin and NLME. […] Predicted exposures were utilized in the PK/PD analyses as all dosing solutions tested were within the variability of the bioanalytical method (20%).

[5] = Distribution into mouse ELF (plasma and BAL sampling); conditions: 100:25 mg/kg sulbactam:durlobactam SC, neutropenic mice infected with ARC2058
A. baumannii [6] = assay type: in vivo
Experimental: as §1

A. baumannii [7] = tested on: A. baumannii; design: method as in PMID 34349751; conditions: cited from earlier work
[8] = design: method as in data on file Entasis Therapeutics; conditions: mean of mouse plasma protein unbound fractions ex vivo, 0.4 µM to 50 µM; ref data on file Entasis Therapeutics; cited from earlier work
[9] = based on total ELF and plasma AUC exposures; cited from earlier work
in vivo = conditions: CD-1, mouse
A. baumannii isolates = test: Broth MIC testing (CLSI methodology); assay type: cell-based; conditions: Acinetobacter baumannii, modal MIC, combination = sulbactam with fixed 4 µg/mL durlobactam
Excerpt: All strains with an “ARC” designation are part of the Entasis collection of clinical isolates. All isolates have been previously characterized by whole genome sequencing.

[10] = tested on: 4,038 recent, global, clinical isolates of A. baumannii; design: method as in PMID 36005804; conditions: 4,038 global clinical isolates, cited from earlier work
A. baumannii [11] = assay type: in vivo; conditions: thigh model; oral 200 mg/kg bid; A. baumannii ARC2058; 24 h
[12] = mean of thigh 4:1, lung 4:1 and thigh fixed SUL dose
[13] = sulbactam and durlobactam co-administered 4:1 SC, predicted value (% coefficient of variance)
[14] = thigh (4:1 dose), 5 strains, SUL mean exposure 32.9 to 43.5%T>MIC, 24 h
[15] = lung model, A. baumannii ARC2058, SC q6h, 24 h
[16] = thigh model, A. baumannii ARC2058, SC q6h, 24 h
[17] = co-modeled thigh (n = 6 strains), sulbactam alone and combined with durlobactam
[18] = thigh, ARC2058, sulbactam only, 24 h
[19] = thigh, ARC3484, sulbactam:durlobactam 4:1 dosing, 24 h
[20] = thigh, ARC5081, sulbactam:durlobactam 4:1 dosing, 24 h
[21] = thigh, ARC5091, sulbactam:durlobactam 4:1 dosing, 24 h
[22] = thigh, mean of individual CRAB strains, 4:1 dosing

CC1=C[C@@H]2CN(C(=O)N2OS(=O)(=O)O)[C@@H]1C(N)=O [Durlobactam, durlobactam]
durlobactam AUC/MIC associated with net 1-log10 CFU reduction over 24 hours (A. baumannii [1]): > 10 and 10
Co-modeled durlobactam fAUC/MIC ratio for 1-log10 CFU reduction from baseline (A. baumannii [2]; mouse, in vivo): 10.6
Co-modeled durlobactam fAUC/MIC ratio for 2-log10 CFU reduction from baseline (A. baumannii [2]; mouse, in vivo): 22.4
Co-modeled durlobactam fAUC/MIC ratio for EC80 (A. baumannii [2]; mouse, in vivo): 78.6
durlobactam fAUC/MIC0-24 at which an additional log10 CFU reduction can be realized (A. baumannii [3]; both thigh and lung models, in combination with sulbactam): ~ 30
durlobactam fAUC/MIC0-24 at which 1-log10 CFU reduction over 24 hours can be realized (A. baumannii [3]; both thigh and lung models, in combination with sulbactam, co-modeled across strains): 10 and ~ 10
Durlobactam fAUC/MIC ratio for 1-log10 CFU reduction from baseline, Mean ± SD (A. baumannii [3]; [12]): 8.7 ± 1.7
Durlobactam fAUC/MIC ratio for 2-log10 CFU reduction from baseline, Mean ± SD (A. baumannii [3]; [12]): 23.4 ± 7.9
Durlobactam fAUC/MIC ratio for EC80, Mean ± SD (A. baumannii [3]; [12]): 44.0 ± 32.1
Cl1 (clearance of central compartment) [4, 13]: 3.0747 (7.3) L/kg/h
Ka (absorption rate) [4, 13]: 13.5 (32.6) 1/hr
V1 (central compartment volume of distribution) [4, 13]: 1.2508 (8.4) L/kg
AUC, ELF [5]: 4400 ng·h/mL
Concentration, ELF ([5]; 1 h): 2480 ± 910 ng/mL
Concentration, ELF ([5]; 3 h): 260 ± 150 ng/mL
Concentration, ELF ([5]; 6 h): 2 ± 1 ng/mL
Concentration, Plasma ([5]; 6 h): 30 ± 10 ng/mL
Concentration, ELF ([5]; 12 h): BLQ
Co-modeled durlobactam fAUC/MIC ratio for EC80 (A. baumannii [6]; mouse, in vivo): 38.2
Co-modeled durlobactam fAUC/MIC ratio for 1-log10 CFU reduction from baseline (A. baumannii [6]; [14]): 8.0
Co-modeled durlobactam fAUC/MIC ratio for 2-log10 CFU reduction from baseline (A. baumannii [6]; [14]): 16.0
Co-modeled durlobactam fAUC/MIC ratio for EC80 (A. baumannii [6]; [14]): 15.1
intrinsic antibacterial activity against A. baumannii on its own (A. baumannii [7]): no significant intrinsic antibacterial activity
murine unbound fraction [8]: 100%
ELF penetration observed clinically [9]: 37%
Kp (in vivo; epithelial lining fluid (ELF) / plasma, subcutaneous): 0.63
AUC (in vivo; in vivo, sc, 25 mg/kg): 7000 ng·h/mL
Kp (in vivo; in vivo, sc, 25 mg/kg): 0.63
concentration at 1 h (in vivo; in vivo, sc, 25 mg/kg): 4070 ± 1790 ng/mL
concentration at 3 h (in vivo; in vivo, sc, 25 mg/kg): 330 ± 130 ng/mL
concentration at 12 h (in vivo; in vivo, sc, 25 mg/kg): 10 ± 1 ng/mL

C[C@@H](O)[C@H]1C(=O)N2C(C(=O)O)=C(S[C@@H]3CN[C@H](C(=O)N(C)C)C3)[C@H](C)[C@H]12 [Meropenem, meropenem]
Meropenem %fT>MIC for 1-log10 CFU/g reduction from baseline (A. baumannii [2]; [15]): 29.4%
Meropenem %fT>MIC for 2-log10 CFU/g reduction from baseline (A. baumannii [2]; [15]): 32.2%
Meropenem %fT>MIC for EC80 (A. baumannii [2]; [15]): 39.7%
Meropenem %fT>MIC for 1-log10 CFU/g reduction from baseline (A. baumannii [6]; [16]): 27.2%
Meropenem %fT>MIC for 2-log10 CFU/g reduction from baseline (A. baumannii [6]; [16]): 32.4%
Meropenem %fT>MIC for EC80 (A. baumannii [6]; [16]): 36.0%

CC1(C)[C@H](C(=O)O)N2C(=O)C[C@H]2S1(=O)=O [Sulbactam, sulbactam]
MIC (A. baumannii isolates; A. baumannii ARC2058): 2 µg/mL
MIC (A. baumannii isolates; A. baumannii ARC3484): 16 µg/mL
MIC (A. baumannii isolates; A. baumannii ARC3486): 32 µg/mL
MIC (A. baumannii isolates; A. baumannii ARC5077): 16 µg/mL
MIC (A. baumannii isolates; A. baumannii ARC5079): 32 µg/mL
MIC (A. baumannii isolates; A. baumannii ARC5081): 16 µg/mL
MIC (A. baumannii isolates; A. baumannii ARC5091): 8 µg/mL
MIC (A. baumannii isolates; A. baumannii ARC5950): 64 µg/mL
MIC (A. baumannii isolates; A. baumannii ARC5954): 32 µg/mL
MIC (A. baumannii isolates; A. baumannii ARC5955): 64 µg/mL
sulbactam fT>MIC at which 1-log10 CFU reduction over 24 hours can be realized (A. baumannii [3]; both thigh and lung models, in combination with durlobactam, co-modeled across strains): exceeds 50%
sulbactam fT>MIC at which 2-log10 CFU reduction was achieved (A. baumannii [3]; present in vivo study, sulbactam-susceptible isolate ARC2058): exceeded 50%
V1 (central compartment volume of distribution) ([4]; sulbactam alone, SC, predicted value): 1.8847 L/kg
Ka (absorption rate) ([4]; sulbactam alone, SC, predicted value (% coefficient of variance)): 6 (12.5) 1/hr
Ka (absorption rate) [4, 13]: 12 (8.4) 1/hr
V1 (central compartment volume of distribution) [4, 13]: 1.0177 (7.0) L/kg
AUC, ELF [5]: 10300 ng·h/mL
AUC, Plasma [5]: 32300 ng·h/mL
Concentration, ELF ([5]; 1 h): 5700 ± 1150 ng/mL
Concentration, Plasma ([5]; 1 h): 18550 ± 5870 ng/mL
Concentration, ELF ([5]; 3 h): 540 ± 120 ng/mL
Concentration, Plasma ([5]; 3 h): 1690 ± 560 ng/mL
Concentration, ELF ([5]; 6 h): 290 ± 140 ng/mL
Concentration, Plasma ([5]; 6 h): 100 ± 50 ng/mL
Concentration, ELF ([5]; 12 h): 60 ± 10 ng/mL
Concentration, Plasma ([5]; 12 h): 20 ± 10 ng/mL
Sulbactam %fT>MIC for 2-log10 CFU reduction from baseline (A. baumannii [6]; [17]): 38.2%
Sulbactam %fT>MIC for EC80 (A. baumannii [6]; [17]): 44.1%
Sulbactam %fT>MIC for 1-log10 CFU reduction from baseline (A. baumannii [6]; [18]): 20.5%
Sulbactam %fT>MIC for 2-log10 CFU reduction from baseline (A. baumannii [6]; [18]): 31.5%
Sulbactam %fT>MIC for EC80 (A. baumannii [6]; [18]): 47.0%
Sulbactam %fT>MIC for 2-log10 CFU reduction from baseline (A. baumannii [6]; [19]): 40.2%
Sulbactam %fT>MIC for EC80 (A. baumannii [6]; [19]): 42.8%
Sulbactam %fT>MIC for EC80 (A. baumannii [6]; thigh, ARC3486, sulbactam:durlobactam 4:1 dosing, 24 h): 55.3%
Sulbactam %fT>MIC for EC80 (A. baumannii [6]; thigh, ARC5079, sulbactam:durlobactam 4:1 dosing, 24 h): 53.2%
Sulbactam %fT>MIC for 1-log10 CFU reduction from baseline (A. baumannii [6]; [20]): 26.3%
Sulbactam %fT>MIC for 2-log10 CFU reduction from baseline (A. baumannii [6]; [20]): 28.8%
Sulbactam %fT>MIC for EC80 (A. baumannii [6]; [20]): 32.0%
Sulbactam %fT>MIC for 1-log10 CFU reduction from baseline (A. baumannii [6]; [21]): 26.7%
Sulbactam %fT>MIC for 2-log10 CFU reduction from baseline (A. baumannii [6]; [21]): 29.3%
Sulbactam %fT>MIC for EC80 (A. baumannii [6]; [21]): 30.4%
Sulbactam %fT>MIC for 2-log10 CFU reduction from baseline, Mean ± SD (A. baumannii [6]; [22]): 38.6 ± 10.0%
Sulbactam %fT>MIC for EC80, Mean ± SD (A. baumannii [6]; [22]): 42.7 ± 11.6%
murine unbound fraction [8]: 100%
MIC90 of sulbactam ([10]; sulbactam alone): 64 µg/mL
MIC90 of sulbactam ([10]; with the addition of durlobactam): 2 µg/mL

C[C@H]1COc2c(N3CCN(C)CC3)c(F)cc3c(=O)c(C(=O)O)cn1c23 [levofloxacin]
change in log10 CFU (positive control) (A. baumannii [11]): −2.4 log10 CFU
log10 CFU/g reduction (positive control) (A. baumannii [2]; lung model, oral 200 mg/kg bid, A. baumannii ARC2058, 24 h): 1.8 log10 CFU/g
